Experimental data as given in patent publication US9611267B2, “Substituted tricyclic compounds as FGFR inhibitors” (Incyte Corporation, priority 2012, dated 2017).
Like-named read-outs stand apart in the source and are kept apart here.

Tests used:
Assay type in all cases: biochemical
FGFR1 = FGFR1 (Homo sapiens (Human), UniProt P11362); test: FGFR enzymatic assay (FRET peptide phosphorylation), FGFR1
Procedure, shortened: (§1)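 IC50 values were obtained from variable-slope sigmoidal dose-response fitting of a FRET read-out of peptide phosphorylation. The buffer, described for FGFR3, was 50 mM HEPES pH 7.5 with MgCl2, EGTA, Tween-20 and DTT.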

FGFR2 = FGFR2 (Homo sapiens (Human), UniProt P21802); test: FGFR enzymatic assay (FRET peptide phosphorylation), FGFR2
FGFR2, sequence (P21802 22-821): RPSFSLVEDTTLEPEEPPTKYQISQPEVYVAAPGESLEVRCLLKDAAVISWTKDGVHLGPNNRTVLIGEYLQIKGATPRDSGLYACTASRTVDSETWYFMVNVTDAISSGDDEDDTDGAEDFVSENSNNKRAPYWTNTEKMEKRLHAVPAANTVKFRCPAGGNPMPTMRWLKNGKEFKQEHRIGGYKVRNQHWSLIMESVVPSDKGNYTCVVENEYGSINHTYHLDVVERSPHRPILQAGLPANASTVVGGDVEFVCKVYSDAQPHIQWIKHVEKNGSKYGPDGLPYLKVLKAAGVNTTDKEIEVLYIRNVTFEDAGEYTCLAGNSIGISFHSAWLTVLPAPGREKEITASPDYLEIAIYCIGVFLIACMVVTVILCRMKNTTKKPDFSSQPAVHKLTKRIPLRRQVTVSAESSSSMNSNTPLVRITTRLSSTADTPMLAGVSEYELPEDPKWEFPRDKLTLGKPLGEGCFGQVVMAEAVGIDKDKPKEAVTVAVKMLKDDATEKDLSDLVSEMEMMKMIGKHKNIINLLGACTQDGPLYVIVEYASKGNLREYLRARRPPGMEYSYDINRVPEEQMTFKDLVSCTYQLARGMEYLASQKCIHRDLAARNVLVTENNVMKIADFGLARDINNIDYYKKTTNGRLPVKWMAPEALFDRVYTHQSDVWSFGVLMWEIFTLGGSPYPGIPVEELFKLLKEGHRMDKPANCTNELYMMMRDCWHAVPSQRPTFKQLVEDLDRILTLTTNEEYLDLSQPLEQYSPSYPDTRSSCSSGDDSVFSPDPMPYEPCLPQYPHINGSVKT
Procedure, shortened: as §1

FGFR3 = FGFR3 (Homo sapiens (Human), UniProt P22607); test: FGFR enzymatic assay (FRET peptide phosphorylation), FGFR3
FGFR3, sequence (P22607 23-806): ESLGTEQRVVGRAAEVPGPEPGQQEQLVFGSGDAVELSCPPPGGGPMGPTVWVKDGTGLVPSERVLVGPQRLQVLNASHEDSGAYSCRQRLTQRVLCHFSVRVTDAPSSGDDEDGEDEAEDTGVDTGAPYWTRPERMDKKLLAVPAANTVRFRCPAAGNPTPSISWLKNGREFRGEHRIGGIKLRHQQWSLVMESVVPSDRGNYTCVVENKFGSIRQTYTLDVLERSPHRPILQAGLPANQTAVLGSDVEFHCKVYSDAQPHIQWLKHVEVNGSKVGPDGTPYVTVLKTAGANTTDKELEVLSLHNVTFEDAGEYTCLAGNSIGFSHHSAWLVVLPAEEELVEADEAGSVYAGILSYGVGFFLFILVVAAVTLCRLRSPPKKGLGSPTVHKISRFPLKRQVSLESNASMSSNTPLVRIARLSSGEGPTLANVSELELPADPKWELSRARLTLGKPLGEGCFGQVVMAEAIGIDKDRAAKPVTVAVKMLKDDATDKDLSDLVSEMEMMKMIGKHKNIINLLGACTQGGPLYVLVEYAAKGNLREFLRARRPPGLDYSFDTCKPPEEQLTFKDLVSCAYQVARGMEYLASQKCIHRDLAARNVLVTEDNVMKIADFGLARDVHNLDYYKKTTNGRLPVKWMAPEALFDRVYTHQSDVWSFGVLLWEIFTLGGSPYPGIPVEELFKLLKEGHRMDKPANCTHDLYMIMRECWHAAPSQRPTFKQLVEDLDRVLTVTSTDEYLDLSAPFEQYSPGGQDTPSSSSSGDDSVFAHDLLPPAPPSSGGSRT
Procedure, shortened: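 After 5-10 min pre-incubation of FGFR3 with serially diluted compound in pH 7.5 HEPES/MgCl2/EGTA/DTT buffer, the reaction proceeded 1 hr at 25° C. Phosphorylated peptide was detected by FRET, and IC50 was fitted with a variable-slope sigmoid.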

[1] = FGFR1 enzyme 0.02 nM, ATP 210 μM
[2] = FGFR2 enzyme 0.01 nM, ATP 100 μM
[3] = FGFR3 enzyme (Millipore), ATP 140 μM

FGFR1, sequence (P11362 22-822): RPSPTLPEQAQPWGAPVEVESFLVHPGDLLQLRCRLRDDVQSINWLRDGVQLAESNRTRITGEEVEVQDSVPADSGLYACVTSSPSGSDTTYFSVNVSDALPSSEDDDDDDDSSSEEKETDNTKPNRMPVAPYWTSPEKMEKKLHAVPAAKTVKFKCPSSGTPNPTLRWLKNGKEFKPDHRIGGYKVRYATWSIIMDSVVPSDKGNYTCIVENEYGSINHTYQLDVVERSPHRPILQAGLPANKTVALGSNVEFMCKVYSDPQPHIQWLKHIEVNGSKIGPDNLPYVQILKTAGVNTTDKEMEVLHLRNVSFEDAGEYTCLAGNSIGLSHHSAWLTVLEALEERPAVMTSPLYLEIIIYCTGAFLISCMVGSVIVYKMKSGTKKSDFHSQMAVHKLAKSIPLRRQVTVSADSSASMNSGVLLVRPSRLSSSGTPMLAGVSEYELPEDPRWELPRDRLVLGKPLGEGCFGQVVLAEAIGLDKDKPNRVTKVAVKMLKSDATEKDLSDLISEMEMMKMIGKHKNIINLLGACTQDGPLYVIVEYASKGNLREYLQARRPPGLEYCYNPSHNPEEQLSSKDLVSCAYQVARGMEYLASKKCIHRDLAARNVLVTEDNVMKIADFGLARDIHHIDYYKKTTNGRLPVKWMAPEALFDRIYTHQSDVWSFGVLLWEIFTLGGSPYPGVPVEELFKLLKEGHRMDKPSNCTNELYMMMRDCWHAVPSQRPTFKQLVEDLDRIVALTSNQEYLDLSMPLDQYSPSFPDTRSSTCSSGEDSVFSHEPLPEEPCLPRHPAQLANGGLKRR

IC50 (FGFR1; [1]) [nM] | IC50 (FGFR2; [2]) [nM] | IC50 (FGFR3; [3]) [nM] | Compound | IC50 (FGFR1) [nM] | IC50 (FGFR2) [nM] | IC50 (FGFR3) [nM]
< 100 | < 100 | < 100 | COc1cc(OC)c(F)c(N2Cc3cnc4[nH]ccc4c3C3(CCOCC3)C2=O)c1F [Example 150, 7′-(2,6-difluoro-3,5-dimethoxyphenyl)-2,3,5,6,6′,7′-hexahydrospiro[pyran-4,9′-pyrrolo[2,3-c][2,7]naphthyridin]-8′(3′H)-one] | – | – | –
– | – | – | COc1cc(OC)c(F)c(N2Cc3cnc4[nH]ccc4c3C3(CCN(C)CC3)C2=O)c1F [Example 151, 7′-(2,6-difluoro-3,5-dimethoxyphenyl)-1-methyl-6′,7′-dihydrospiro[piperidine-4,9′-pyrrolo[2,3-c][2,7]naphthyridin]-8′(3′H)-one] | < 100 | < 100 | < 100
< 100 | < 100 | < 100 | COc1cc(OC)c(F)c(N2Cc3cnc4[nH]c(CN5CCOCC5)cc4c3C(C)(C)C2=O)c1F [Example 152, 7-(2,6-difluoro-3,5-dimethoxyphenyl)-9,9-dimethyl-2-(morpholin-4-ylmethyl)-3,6,7,9-tetrahydro-8H-pyrrolo[2,3-c]-2,7-naphthyridin-8-one] | – | – | –
< 100 | < 100 | < 100 | COc1cc(OC)c(F)c(N2Cc3cnc4[nH]c(CN5CCN(C)CC5)cc4c3C(C)(C)C2=O)c1F [Example 153, 7-(2,6-difluoro-3,5-dimethoxyphenyl)-9,9-dimethyl-2-[(4-methylpiperazin-1-yl)methyl]-3,6,7,9-tetrahydro-8H-pyrrolo[2,3-c]-2,7-naphthyridin-8-one] | – | – | –
< 100 | < 100 | < 100 | CCN1CCN(Cc2cc3c4c(cnc3[nH]2)CN(c2c(F)c(OC)cc(OC)c2F)C(=O)C4(C)C)CC1 [Example 154, 7-(2,6-difluoro-3,5-dimethoxyphenyl)-2-[(4-ethylpiperazin-1-yl)methyl]-9,9-dimethyl-3,6,7,9-tetrahydro-8H-pyrrolo[2,3-c]-2,7-naphthyridin-8-one] | – | – | –
< 100 | < 100 | < 100 | COc1cc(OC)c(F)c(N2Cc3cnc4[nH]c(CN5CCC(C#N)CC5)cc4c3C(C)(C)C2=O)c1F [Example 155, 1-{[7-(2,6-difluoro-3,5-dimethoxyphenyl)-9,9-dimethyl-8-oxo-6,7,8,9-tetrahydro-3H-pyrrolo[2,3-c]-2,7-naphthyridin-2-yl]methyl}piperidine-4-carbonitrile] | – | – | –
< 100 | < 100 | < 100 | COc1cc(OC)c(F)c(N2Cc3cnc4[nH]c(CN5CC[C@H](N(C)C)C5)cc4c3C(C)(C)C2=O)c1F [Example 156, 7-(2,6-difluoro-3,5-dimethoxyphenyl)-2-{[(3S)-3-(dimethylamino)pyrrolidin-1-yl]methyl}-9,9-dimethyl-3,6,7,9-tetrahydro-8H-pyrrolo[2,3-c]-2,7-naphthyridin-8-one] | – | – | –
< 100 | < 100 | < 100 | COc1cc(OC)c(F)c(N2Cc3cnc4[nH]c(CN5CC[C@@H](N(C)C)C5)cc4c3C(C)(C)C2=O)c1F [Example 157, 7-(2,6-difluoro-3,5-dimethoxyphenyl)-2-{[(3R)-3-(dimethylamino)pyrrolidin-1-yl]methyl}-9,9-dimethyl-3,6,7,9-tetrahydro-8H-pyrrolo[2,3-c]-2,7-naphthyridin-8-one] | – | – | –
< 100 | < 100 | < 100 | COc1cc(OC)c(F)c(N2Cc3cnc4[nH]c(CCN5CCOCC5)cc4c3C(C)(C)C2=O)c1F [Example 158, 7-(2,6-difluoro-3,5-dimethoxyphenyl)-9,9-dimethyl-2-(2-morpholin-4-ylethyl)-3,6,7,9-tetrahydro-8H-pyrrolo[2,3-c]-2,7-naphthyridin-8-one] | – | – | –
< 100 | < 100 | < 100 | CCN1CCN(CCc2cc3c4c(cnc3[nH]2)CN(c2c(F)c(OC)cc(OC)c2F)C(=O)C4(C)C)CC1 [Example 159, 7-(2,6-difluoro-3,5-dimethoxyphenyl)-2-[2-(4-ethylpiperazin-1-yl)ethyl]-9,9-dimethyl-3,6,7,9-tetrahydro-8H-pyrrolo[2,3-c]-2,7-naphthyridin-8-one] | – | – | –
< 100 | < 100 | < 100 | COc1cc(OC)c(F)c(N2Cc3cnc4[nH]c(CCN5CCN(C)CC5)cc4c3C(C)(C)C2=O)c1F [Example 160, 7-(2,6-difluoro-3,5-dimethoxyphenyl)-9,9-dimethyl-2-[2-(4-methylpiperazin-1-yl)ethyl]-3,6,7,9-tetrahydro-8H-pyrrolo[2,3-c]-2,7-naphthyridin-8-one] | – | – | –
< 100 | < 100 | < 100 | COc1cc(OC)c(F)c(N2Cc3cnc4[nH]ncc4c3N(Cc3cocn3)C2=O)c1F [Example 161, 3-(2,6-Difluoro-3,5-dimethoxyphenyl)-1-(1,3-oxazol-4-ylmethyl)-1,3,4,7-tetrahydro-2H-pyrazolo[4′,3′:5,6]pyrido[4,3-d]pyrimidin-2-one] | – | – | –
< 100 | < 100 | < 100 | COc1cc(OC)c(F)c(N2Cc3cnc4[nH]ncc4c3N(Cc3ccon3)C2=O)c1F [Example 162, 3-(2,6-Difluoro-3,5-dimethoxyphenyl)-1-(isoxazol-3-ylmethyl)-1,3,4,7-tetrahydro-2H-pyrazolo[4′,3′:5,6]pyrido[4,3-d]pyrimidin-2-one] | – | – | –
< 100 | < 100 | < 100 | COc1cc(OC)c(F)c(N2Cc3cnc4[nH]ncc4c3N(Cc3cscn3)C2=O)c1F [Example 163, 3-(2,6-Difluoro-3,5-dimethoxyphenyl)-1-(1,3-thiazol-4-ylmethyl)-1,3,4,7-tetrahydro-2H-pyrazolo[4′,3′:5,6]pyrido[4,3-d]pyrimidin-2-one] | – | – | –
< 100 | < 100 | < 100 | COc1cc(OC)c(F)c(N2Cc3cnc4[nH]ncc4c3N(c3ccccc3OC(F)F)C2=O)c1F [Example 164, 3-(2,6-Difluoro-3,5-dimethoxyphenyl)-1-[2-(difluoromethoxy)phenyl]-1,3,4,7-tetrahydro-2H-pyrazolo[4′,3′:5,6]pyrido[4,3-d]pyrimidin-2-one] | – | – | –
< 100 | < 100 | < 100 | COc1cc(OC)c(F)c(N2Cc3cnc4[nH]ncc4c3N(CCn3cccn3)C2=O)c1F [Example 165, 3-(2,6-Difluoro-3,5-dimethoxyphenyl)-1-[2-(1H-pyrazol-1-yl)ethyl]-1,3,4,7-tetrahydro-2H-pyrazolo[4′,3′:5,6]pyrido[4,3-d]pyrimidin-2-one] | – | – | –
< 100 | < 100 | < 100 | COc1cc(OC)c(F)c(N2Cc3cnc4[nH]ncc4c3N(C[C@H]3CCCO3)C2=O)c1F [Example 166, 3-(2,6-Difluoro-3,5-dimethoxyphenyl)-1-[(2R)-tetrahydrofuran-2-ylmethyl]-1,3,4,7-tetrahydro-2H-pyrazolo[4′,3′:5,6]pyrido[4,3-d]pyrimidin-2-one] | – | – | –
< 100 | < 100 | < 100 | COc1cc(OC)c(F)c(N2Cc3cnc4[nH]ncc4c3N(C[C@@H]3CCCO3)C2=O)c1F [Example 167, 3-(2,6-Difluoro-3,5-dimethoxyphenyl)-1-[(2S)-tetrahydrofuran-2-ylmethyl]-1,3,4,7-tetrahydro-2H-pyrazolo[4′,3′:5,6]pyrido[4,3-d]pyrimidin-2-one] | – | – | –
< 100 | < 100 | < 100 | COc1cc(OC)c(F)c(N2Cc3cnc4[nH]ncc4c3N(CCc3cnccn3)C2=O)c1F [Example 168, 3-(2,6-Difluoro-3,5-dimethoxyphenyl)-1-(2-pyrazin-2-ylethyl)-1,3,4,7-tetrahydro-2H-pyrazolo[4′,3′:5,6]pyrido[4,3-d]pyrimidin-2-one] | – | – | –
< 100 | < 100 | < 100 | COc1cc(OC)c(F)c(N2Cc3cnc4[nH]ncc4c3N(CCc3ccccn3)C2=O)c1F [Example 169, 3-(2,6-Difluoro-3,5-dimethoxyphenyl)-1-(2-pyridin-2-ylethyl)-1,3,4,7-tetrahydro-2H-pyrazolo[4′,3′:5,6]pyrido[4,3-d]pyrimidin-2-one] | – | – | –
< 100 | < 100 | < 100 | COc1cc(OC)c(F)c(N2Cc3cnc4[nH]ncc4c3N(CCc3cccnc3)C2=O)c1F [Example 170, 3-(2,6-Difluoro-3,5-dimethoxyphenyl)-1-(2-pyridin-3-ylethyl)-1,3,4,7-tetrahydro-2H-pyrazolo[4′,3′:5,6]pyrido[4,3-d]pyrimidin-2-one] | – | – | –
< 100 | < 100 | < 100 | COc1cc(OC)c(F)c(N2Cc3cnc4[nH]ncc4c3N(CCc3ccncc3)C2=O)c1F [Example 171, 3-(2,6-Difluoro-3,5-dimethoxyphenyl)-1-(2-pyridin-4-ylethyl)-1,3,4,7-tetrahydro-2H-pyrazolo[4′,3′:5,6]pyrido[4,3-d]pyrimidin-2-one] | – | – | –
< 100 | < 100 | < 100 | CCn1cc(N2C(=O)N(c3c(F)c(OC)cc(OC)c3F)Cc3cnc4[nH]ncc4c32)cn1 [Example 172, 3-(2,6-difluoro-3,5-dimethoxyphenyl)-1-(1-ethyl-1H-pyrazol-4-yl)-1,3,4,7-tetrahydro-2H-pyrazolo[4′,3′:5,6]pyrido[4,3-d]pyrimidin-2-one] | – | – | –
< 100 | < 100 | < 100 | COc1cc(OC)c(F)c(N2Cc3cnc4[nH]ncc4c3N(c3cnn(CC(C)(C)O)c3)C2=O)c1F [Example 173, 3-(2,6-difluoro-3,5-dimethoxyphenyl)-1-[1-(2-hydroxy-2-methylpropyl)-1H-pyrazol-4-yl]-1,3,4,7-tetrahydro-2H-pyrazolo[4′,3′:5,6]pyrido[4,3-d]pyrimidin-2-one] | – | – | –
